# According to US11945973B2, “Ionic liquid-based coating and method of making articles coated with the same” (THE HONG KONG UNIVERSITY OF SCIENCE AND TECHNOLOGY, priority 2019, dated 2024):
# How the values were obtained:
# E. coli = assay: Inhibition zone on agar plates; format: cell-based; settings: liquid applied to agar plate
# Protocol: A bacterial suspension (0.1 ml) was spread onto tryptone soya agar plates. HEPA filters with ionic liquid coatings were cut into small pieces. They were then placed on the center of plates spread by bacteria. The plates were incubated at room temperature for 48 hours.
# [1] = test system: A549 lung epithelial cells
# Protocol: A549 lung epithelial cells were grown in 25 cm^2 flasks with Dulbecco's modified Eagle's medium (DMEM) supplemented with 10% fetal bovine serum, 100 U/ml streptomycin, and 50 U/ml penicillin at 37° C. in a humidified atmosphere with 5% CO2. A subculture of confluent monolayers was carried out using 0.05% trypsin, 0.53 mmol/l ethylenediaminetetraacetic acid in calcium and magnesium-free Hanks balanced salt solution (HBSS). […] For the 3-(4,5-dimethylthiazol-2-yl)-2,5-diphenyltetrazolium bromide (MTT) assay, cells were plated in 96-well microplates at 2×10^5 cell/well for 6 hours, then the media were gently changed to remove non-adherent cells. The plates were used for assays after 24 hours. […] The media were replaced with 100 μl of dimethyl sulfoxide for 20 minutes, and the absorbances at 595 nm were determined using a microplate reader. […] The inhibition rate, I, is given by [formula] where C is the absorbance of the control group containing the cell solution and MTT, which indicates the number of maximum living cells, S is the absorbance of the sample group containing the cell solution, ionic liquids and MTT, which indicates the number of living cells in the ionic liquids, and B is the absorbance of the blank group containing only pure culture media and MTT, which is set reduce interference by the natural environment.
SMILES,inhibition zone for E. coli (E. coli),cytotoxicity (inhibition rate) for A549 lung epithelial cells [1]
"CCn1cc[n+](C)c1.F[B-](F)(F)F [EMIM-BF4, 1-ethyl-3-methylimidazolium tetrafluoroborate]",obvious inhibition,lowest cytotoxicity
"CCO [ethanol, reference compound]",no clear inhibition zones,
